Reference: BindingDB's records for patent US9593123 (Hoffmann-La Roche, 2017)

Target: Cannabinoid receptor 1 (Homo sapiens, UniProt P21554)
Sequence (P21554 whole entry): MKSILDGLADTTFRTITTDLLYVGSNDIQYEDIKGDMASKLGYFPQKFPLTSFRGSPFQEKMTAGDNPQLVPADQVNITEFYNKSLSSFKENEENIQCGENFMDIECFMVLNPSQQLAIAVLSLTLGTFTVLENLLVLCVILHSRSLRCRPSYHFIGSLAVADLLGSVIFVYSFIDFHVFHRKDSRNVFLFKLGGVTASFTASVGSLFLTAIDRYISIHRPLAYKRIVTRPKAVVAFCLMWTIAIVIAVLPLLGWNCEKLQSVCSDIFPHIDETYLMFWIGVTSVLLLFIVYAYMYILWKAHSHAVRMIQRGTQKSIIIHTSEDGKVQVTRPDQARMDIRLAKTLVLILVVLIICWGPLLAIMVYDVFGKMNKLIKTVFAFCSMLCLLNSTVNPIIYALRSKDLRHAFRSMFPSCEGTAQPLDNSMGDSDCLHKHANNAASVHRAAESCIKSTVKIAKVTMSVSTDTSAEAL

CC(=O)N[C@H]1CCN(c2nc(O[C@@H](C)C(F)(F)F)nc3c2nnn3Cc2ccccc2C(F)(F)F)C1 [US9593123, Example 81]
EC50: > 10 µM
